Test results taken from PMC6010138, “Synthesis and carbonic anhydrase I, II, VII, and IX inhibition studies with a series of benzo[d]thiazole-5- and 6-sulfonamides” (Journal of Enzyme Inhibition and Medicinal Chemistry, 2017).
pKi: −log10 of the molar value.

Legend:
Test in all cases: stopped-flow CO2 hydrase assay
Assay type in all cases: biochemical
hCA IX = biological target: T1, hCA IX (Homo sapiens, UniProt Q16790)
T1 construct: gene CA9; recombinant, obtained in-house; transmembrane isoform

hCA II = biological target: T2, hCA II (Homo sapiens, UniProt P00918)
T2 construct: gene CA2; recombinant, obtained in-house; cytosolic isoform
Excerpt: stopped-flow CO2 hydrase assay on hCA II

hCA I = biological target: T3, hCA I (Homo sapiens, UniProt P00915)
T3 construct: gene CA1; recombinant, obtained in-house; cytosolic isoform
T3 sequence (P00915 2-261): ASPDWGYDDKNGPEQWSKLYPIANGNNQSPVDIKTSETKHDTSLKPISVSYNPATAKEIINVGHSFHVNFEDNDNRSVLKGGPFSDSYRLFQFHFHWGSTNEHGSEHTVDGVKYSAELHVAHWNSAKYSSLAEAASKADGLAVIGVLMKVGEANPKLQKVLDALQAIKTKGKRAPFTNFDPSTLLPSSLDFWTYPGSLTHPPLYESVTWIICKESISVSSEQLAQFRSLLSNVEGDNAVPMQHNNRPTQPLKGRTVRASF

hCA VII = biological target: T4, hCA VII (Homo sapiens, UniProt P43166)
T4 construct: gene CA7; recombinant, obtained in-house; cytosolic isoform
T4 sequence (P43166 whole entry, canonical isoform): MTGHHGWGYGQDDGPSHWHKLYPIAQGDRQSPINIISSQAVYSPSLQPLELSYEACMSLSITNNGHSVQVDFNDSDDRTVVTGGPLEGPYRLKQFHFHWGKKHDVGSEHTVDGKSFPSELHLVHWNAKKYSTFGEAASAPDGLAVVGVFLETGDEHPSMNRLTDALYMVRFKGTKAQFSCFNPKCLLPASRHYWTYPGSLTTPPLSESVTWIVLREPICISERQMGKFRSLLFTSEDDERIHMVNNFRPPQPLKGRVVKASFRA
Excerpt: stopped-flow CO2 hydrase assay on hCA VII

SMILES | pKi (hCA IX) | pKi (hCA II) | pKi (hCA I) | pKi (hCA VII)
Nc1nc2c(I)cc(S(N)(=O)=O)cc2s1 [compound 7, 2-Amino-4-iodobenzo[d]thiazole-6-sulfonamide] | 6.67 | 7.82 | 6.22 | 7.03
NS(=O)(=O)c1ccc2nc(NC(=O)c3ccccc3C(=O)O)sc2c1 [compound 12, 2-((6-Sulfamoylbenzo[d]thiazol-2-yl)carbamoyl)benzoic acid] | 8.00 | 7.87 | 7.01 | 7.33
Nc1nc2c(Br)cc(S(N)(=O)=O)cc2s1 [compound 5, 2-Amino-4-bromobenzo[d]thiazole-6-sulfonamide] | 7.79 | 8.06 | 6.51 | 7.51
NC(=S)Nc1cccc(S(N)(=O)=O)c1 [compound 3, 3-Thioureidobenzenesulfonamide] | 6.53 | 6.83 | 6.04 | 7.12
Nc1nc2cc(S(N)(=O)=O)ccc2s1 [compound 4, 2-Aminobenzo[d]thiazole-5-sulfonamide] | 7.42 | 6.43 | 6.10 | 7.25
Nc1nc2c(I)c(S(N)(=O)=O)ccc2s1 [compound 8, 2-Amino-4-iodobenzo[d]thiazole-5-sulfonamide] | 7.00 | 7.29 | 6.32 | 7.37
Nc1nc2ccc(S(N)(=O)=O)cc2s1 [compound 2, 2-Aminobenzo[d]thiazole-6-sulfonamide] | 8.43 | 7.47 | 7.08 | 7.07
CC(=O)Nc1nc2ccc(S(N)(=O)=O)cc2s1 [compound 9, N-(6-sulfamoylbenzo[d]thiazol-2-yl)acetamide] | 7.63 | 7.68 | 6.44 | 7.26
Nc1nc2c(Br)c(S(N)(=O)=O)ccc2s1 [compound 6, 2-Amino-4-bromobenzo[d]thiazole-5-sulfonamide] | 7.53 | 8.11 | 6.15 | 9.10
NC(=S)Nc1ccc(S(N)(=O)=O)cc1 [compound 1, 4-Thioureido-benzenesulfonamide] | 7.48 | 7.15 | 6.33 | 7.12
CC(=O)Nc1nc2cc(S(N)(=O)=O)ccc2s1 [compound 11, N-(5-sulfamoylbenzo[d]thiazol-2-yl)acetamide] | 7.49 | 7.38 | 6.47 | 7.09
CC(=O)Nc1nc2c(Br)cc(S(N)(=O)=O)cc2s1 [compound 10, N-(4-bromo-6-sulfamoylbenzo[d]thiazol-2-yl)acetamide] | 7.46 | 6.68 | 5.63 | 7.09
